Read-outs that look alike come from different tables or passages of the source. One block for each molecule: values may come before it.
Assays:
Type in all cases: biochemical
[1] = biological target: CDK2/CCNE1 (Homo sapiens, UniProt P24941); assay: CDK2 homogeneous time-resolved fluorescence (HTRF) kinase assay; details: CDK2/CCNE
In short: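 CDK2/CCNE1 (3 nM) preincubated 20 min at 23 °C with compound, then reacted 60 min at 23 °C with 1 mM ATP and 50 nM ULight-4E-BP1 (Thr37/46) peptide. Stopped with EDTA, phospho-peptide detected by Eu-anti-phospho antibody (665 nm or 665/615 ratio). IC50 from 11-point half-log titrations typically starting at 10 μM.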

[2] = biological target: CDK1/CCNB1 (Homo sapiens, UniProt P06493); assay: CDK1 homogeneous time-resolved fluorescence (HTRF) kinase assay; details: CDK1/CCNB
Chain of CDK1/CCNB1 (P06493 whole entry): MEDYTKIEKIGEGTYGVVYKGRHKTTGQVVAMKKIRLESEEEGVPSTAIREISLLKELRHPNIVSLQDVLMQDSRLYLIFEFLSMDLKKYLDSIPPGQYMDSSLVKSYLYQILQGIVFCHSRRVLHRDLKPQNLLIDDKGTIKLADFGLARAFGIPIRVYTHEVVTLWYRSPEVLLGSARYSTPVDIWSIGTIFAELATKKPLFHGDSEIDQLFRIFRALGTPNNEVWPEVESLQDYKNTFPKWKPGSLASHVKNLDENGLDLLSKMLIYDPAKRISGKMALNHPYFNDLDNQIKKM
Chain of CDK1/CCNB1 (P14635 whole entry partner): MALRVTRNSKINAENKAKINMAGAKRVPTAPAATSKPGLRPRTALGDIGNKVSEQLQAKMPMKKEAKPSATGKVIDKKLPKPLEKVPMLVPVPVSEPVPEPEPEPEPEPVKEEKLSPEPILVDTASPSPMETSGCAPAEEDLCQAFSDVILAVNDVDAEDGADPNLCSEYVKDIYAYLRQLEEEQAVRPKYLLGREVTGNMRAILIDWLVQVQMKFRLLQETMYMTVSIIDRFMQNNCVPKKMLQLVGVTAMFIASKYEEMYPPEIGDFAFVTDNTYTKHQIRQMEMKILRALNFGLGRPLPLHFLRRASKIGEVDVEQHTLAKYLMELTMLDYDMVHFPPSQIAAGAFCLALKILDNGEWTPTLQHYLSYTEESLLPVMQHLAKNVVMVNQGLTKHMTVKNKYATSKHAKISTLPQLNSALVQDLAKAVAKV
In short: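 0.5 nM CDK1/CCNB1 was preincubated 20 min at 23 °C with compound in HEPES pH-unspecified buffer (MgCl2, EGTA, DTT, Tween 20), then reacted 60 min with 1 mM ATP and 50 nM ULight-4E-BP1 (Thr37/46) peptide. EDTA-stopped reactions were detected with 2 nM Eu-anti-phospho antibody; IC50 from 11-point half-log titrations.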

[3] = biological target: CDK4/CCND3 (Homo sapiens, UniProt P11802); assay: CDK4 homogeneous time-resolved fluorescence (HTRF) kinase assay; details: CDK4/CCND
Chain of CDK4/CCND3 (P11802 whole entry): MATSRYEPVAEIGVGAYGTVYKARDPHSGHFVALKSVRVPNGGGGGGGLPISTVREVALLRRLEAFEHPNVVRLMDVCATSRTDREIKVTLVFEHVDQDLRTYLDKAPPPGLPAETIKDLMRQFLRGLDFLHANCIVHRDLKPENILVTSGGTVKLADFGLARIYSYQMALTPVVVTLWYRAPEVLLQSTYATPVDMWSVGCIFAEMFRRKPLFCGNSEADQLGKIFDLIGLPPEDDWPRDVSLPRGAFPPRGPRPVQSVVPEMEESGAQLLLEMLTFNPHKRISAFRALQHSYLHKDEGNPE
Chain of CDK4/CCND3 (P30281 whole entry partner): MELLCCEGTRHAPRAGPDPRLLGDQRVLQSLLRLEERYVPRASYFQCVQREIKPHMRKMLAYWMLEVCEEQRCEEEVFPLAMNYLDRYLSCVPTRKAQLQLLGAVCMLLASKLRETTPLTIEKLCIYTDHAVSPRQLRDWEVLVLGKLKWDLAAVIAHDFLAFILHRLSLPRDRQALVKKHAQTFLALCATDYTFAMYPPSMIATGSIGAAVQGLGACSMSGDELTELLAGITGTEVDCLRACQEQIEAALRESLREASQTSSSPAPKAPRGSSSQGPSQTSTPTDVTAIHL
In short: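 Steps: compound plus 1.5 nM CDK4/CCND3, 20 min, 23 °C; add 1 mM ATP and 50 nM ULight-4E-BP1 (Thr37/46) peptide, 60 min; stop with 10 mM EDTA; add 2 nM Eu anti-phospho antibody, 60 min; read 665 nm. IC50 from 11-point half-log series starting 10 μM.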

[4] = biological target: CDK6/CCND1 (Homo sapiens, UniProt Q00534); assay: CDK6 homogeneous time-resolved fluorescence (HTRF) kinase assay; details: CDK6/CCND
Chain of CDK6/CCND1 (Q00534 whole entry): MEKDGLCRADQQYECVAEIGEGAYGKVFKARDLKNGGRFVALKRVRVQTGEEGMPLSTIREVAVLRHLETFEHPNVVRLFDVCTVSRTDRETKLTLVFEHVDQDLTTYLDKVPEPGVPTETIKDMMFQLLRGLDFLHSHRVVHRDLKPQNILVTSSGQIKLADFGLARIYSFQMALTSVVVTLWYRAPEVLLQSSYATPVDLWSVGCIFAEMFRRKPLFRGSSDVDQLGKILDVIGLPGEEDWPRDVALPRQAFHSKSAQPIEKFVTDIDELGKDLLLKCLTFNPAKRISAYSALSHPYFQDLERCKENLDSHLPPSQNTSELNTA
Chain of CDK6/CCND1 (P24385 whole entry partner): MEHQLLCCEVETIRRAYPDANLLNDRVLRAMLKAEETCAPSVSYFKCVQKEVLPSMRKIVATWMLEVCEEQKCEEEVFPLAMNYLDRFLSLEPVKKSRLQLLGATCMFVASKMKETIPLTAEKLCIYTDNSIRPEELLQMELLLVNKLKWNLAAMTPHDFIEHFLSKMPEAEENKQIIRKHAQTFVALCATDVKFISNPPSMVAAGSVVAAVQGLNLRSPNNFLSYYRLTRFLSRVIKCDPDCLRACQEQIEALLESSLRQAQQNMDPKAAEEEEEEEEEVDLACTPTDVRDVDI
In short: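 Enzyme pre-incubated 20 min at 23 °C with compound, then reacted 60 min at 23 °C with 1 mM ATP and 50 nM ULight-4E-BP1 (Thr37/46) peptide; 1 nM enzyme, 1% DMSO. EDTA-stopped, Eu-anti-phospho antibody TR-FRET read (665 nm or 665/615 ratio); 11-point half-log titration from 10 μM gave IC50.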

[5] = x = IC50 25-250 nM, read-out: CDK2/CCNE IC50 (25-250 nM)
[6] = x = IC50 >250 nM, read-out: CDK1/CCNB IC50 (>250 nM column)
[7] = x = IC50 >250 nM, read-out: CDK4/CCND IC50 (>250 nM column)
[8] = x = IC50 >250 nM, read-out: CDK6/CCND IC50 (>250 nM column)
[9] = x = IC50 <25 nM, read-out: CDK2/CCNE IC50 (<25 nM)
[10] = x = IC50 25-250 nM, read-out: CDK1/CCNB IC50 (25-250 nM)
[11] = x = IC50 25-250 nM, read-out: CDK4/CCND IC50 (25-250 nM)
[12] = x = IC50 25-250 nM, read-out: CDK6/CCND IC50 (25-250 nM)
[13] = <25 nM, read-out: CDK2/CCNE IC50 <25 nM
[14] = 25-250 nM marked x, read-out: CDK4/CCND IC50 25-250 nM
[15] = 25-250 nM marked x, read-out: CDK6/CCND IC50 25-250 nM
[16] = <25 nM, read-out: CDK2/CCNE IC50, <25 nM
[17] = >250 nM, read-out: CDK1/CCNB IC50 >250 nM
[18] = >250 nM, read-out: CDK4/CCND IC50, >250 nM
[19] = >250 nM, 1 mM ATP, read-out: CDK6/CCND IC50, >250 nM
[20] = 25-250 nM marked x, read-out: CDK2/CCNE IC50 25-250 nM
[21] = >250 nM marked x, read-out: CDK1/CCNB IC50 >250 nM
[22] = >250 nM marked x, read-out: CDK4/CCND IC50 >250 nM
[23] = >250 nM marked x, read-out: CDK6/CCND IC50 >250 nM
[24] = 25-250 nM, read-out: CDK4/CCND IC50, 25-250 nM
[25] = 25-250 nM, 1 mM ATP, read-out: CDK6/CCND IC50, 25-250 nM

IC50 [1, 5]: 25 to 250 nM | IC50 [2, 6]: > 250 nM | IC50 [3, 7]: > 250 nM | IC50 [4, 8]: > 250 nM
SMILES: CS(=O)(=O)c1ccc(Nc2cc3c(C#Cc4n[nH]c5c(F)cccc45)nccc3cn2)cc1 [Ex 503, 5-((7-fluoro-1H-indazol-3-yl)ethynyl)-N-(4-(methylsulfonyl)phenyl)-2,6-naphthyridin-3-amine]

IC50 [1, 9]: < 25 nM | IC50 [2, 10]: 25 to 250 nM | IC50 [3, 11]: 25 to 250 nM | IC50 [4, 12]: 25 to 250 nM
SMILES: Cc1c(-c2nccc3cnc(Nc4ccc(S(=N)(N)=O)cc4)cc23)ccc2c1cnn2CC(O)(C(F)(F)F)C(F)(F)F (single isomer, unassigned) [Ex 679, 4-((5-(4-methyl-1-(3,3,3-trifluoro-2-hydroxy-2-(trifluoromethyl)propyl)-1H-indazol-5-yl)-2,6-naphthyridin-3-yl)amino)benzenesulfonimidamide]

IC50 [1, 13]: < 25 nM | IC50 ([2]; 25-250 nM marked x, read-out: CDK1/CCNB IC50 25-250 nM): 25 to 250 nM | IC50 [3, 14]: 25 to 250 nM | IC50 [4, 15]: 25 to 250 nM
SMILES: Cc1c(-c2nccc3cnc(Nc4ccc(S(C)(=O)=O)cc4)cc23)ccc2c1cnn2CCO [Ex 267, 2-(4-methyl-5-(7-((4-(methylsulfonyl)phenyl)amino)-2,6-naphthyridin-1-yl)-1H-indazol-1-yl)ethan-1-ol]

IC50 [1, 16]: < 25 nM | IC50 [2, 17]: > 250 nM | IC50 [3, 18]: > 250 nM | IC50 [4, 19]: > 250 nM
SMILES: Cc1cc(C)nc(NS(=O)(=O)c2ccc(Nc3cc4c(-c5ccc6c(cnn6CC(O)(C(F)(F)F)C(F)(F)F)c5C)nccc4cn3)cc2)n1 [Ex 736, N-(4,6-dimethylpyrimidin-2-yl)-4-((5-(4-methyl-1-(3,3,3-trifluoro-2-hydroxy-2-(trifluoromethyl)propyl)-1H-indazol-5-yl)-2,6-naphthyridin-3-yl)amino)benzenesulfonamide]

IC50 ([1]; 25-250 nM, read-out: CDK2/CCNE IC50, 25-250 nM): 25 to 250 nM | IC50 [2, 17]: > 250 nM | IC50 [3, 18]: > 250 nM | IC50 [4, 19]: > 250 nM
SMILES: Cc1c(-c2nccc3cnc(Nc4ccc(S(=O)(=O)Nc5nncn5C)cc4)cc23)ccc2c1cnn2CC(C)(C)O [Ex 855, 4-((5-(1-(2-hydroxy-2-methylpropyl)-4-methyl-1H-indazol-5-yl)-2,6-naphthyridin-3-yl)amino)-N-(4-methyl-4H-1,2,4-triazol-3-yl)benzenesulfonamide]

IC50 [1, 20]: 25 to 250 nM | IC50 [2, 21]: > 250 nM | IC50 [3, 22]: > 250 nM | IC50 [4, 23]: > 250 nM
SMILES: CS(=O)(=O)c1ccc(Nc2cc3c(C#Cc4ccc(C#N)cc4)nccc3cn2)cc1 [Ex 129, 4-((7-((4-(methylsulfonyl)phenyl)amino)-2,6-naphthyridin-1-yl)ethynyl)benzonitrile]

IC50 [1, 9]: < 25 nM | IC50 [2, 10]: 25 to 250 nM | IC50 ([3]; x = IC50 <25 nM, read-out: CDK4/CCND IC50 (<25 nM)): < 25 nM | IC50 [4, 12]: 25 to 250 nM
SMILES: N=S(=O)(c1ccc(Nc2cc3c(C#Cc4ccc5c(c4)NC(=O)C54CC4)nccc3cn2)cc1)C1CCC1 (single isomer, unassigned) [Ex 350, 6'-((7-((4-(cyclobutanesulfonimidoyl)phenyl)amino)-2,6-naphthyridin-1-yl)ethynyl)spiro[cyclopropane-1,3'-indolin]-2'-one]

IC50 [1, 5]: 25 to 250 nM | IC50 [2, 6]: > 250 nM | IC50 [3, 7]: > 250 nM | IC50 [4, 8]: > 250 nM
SMILES: CS(=O)(=O)c1ccc(Nc2cc3c(C#Cc4ccc(=O)n(C(F)F)c4)nccc3cn2)cc1 [Ex 528, 1-(difluoromethyl)-5-((7-((4-(methylsulfonyl)phenyl)amino)-2,6-naphthyridin-1-yl)ethynyl)pyridin-2(1H)-one]

IC50 [1, 16]: < 25 nM | IC50 [2, 17]: > 250 nM | IC50 [3, 18]: > 250 nM | IC50 [4, 19]: > 250 nM
SMILES: Cc1c(-c2nccc3cnc(Nc4ccc(S(=O)(=O)NCc5ccccc5)cc4)cc23)ccc2c1cnn2CC(C)(C)O [Ex 730, N-benzyl-4-((5-(1-(2-hydroxy-2-methylpropyl)-4-methyl-1H-indazol-5-yl)-2,6-naphthyridin-3-yl)amino)benzenesulfonamide]

IC50 ([1]; >250 nM marked x, read-out: CDK2/CCNE IC50 >250 nM): > 250 nM | IC50 [2, 21]: > 250 nM | IC50 [3, 22]: > 250 nM | IC50 [4, 23]: > 250 nM
SMILES: CN1CCN(C(=O)[C@H]2CC[C@H](c3nccc4cnc(Nc5ccc(S(C)(=O)=O)cc5)cc43)CC2)CC1 [Ex 227, (4-methylpiperazin-1-yl)((1r,4r)-4-(7-((4-(methylsulfonyl)phenyl)amino)-2,6-naphthyridin-1-yl)cyclohexyl)methanone]

IC50 [1, 13]: < 25 nM | IC50 [2, 21]: > 250 nM | IC50 [3, 14]: 25 to 250 nM | IC50 [4, 15]: 25 to 250 nM
SMILES: COC(=O)[C@H]1CC[C@H](C#Cc2nccc3cnc(Nc4ccc(S(C)(=O)=O)cc4)cc23)CC1 [Ex 213, methyl (1r,4r)-4-((7-((4-(methylsulfonyl)phenyl)amino)-2,6-naphthyridin-1-yl)ethynyl)cyclohexane-1-carboxylate]

IC50 [1, 16]: < 25 nM | IC50 [2, 17]: > 250 nM | IC50 [3, 24]: 25 to 250 nM | IC50 [4, 25]: 25 to 250 nM
SMILES: Cc1c(-c2nccc3cnc(Nc4ccc(S(=O)(=O)Nc5ccc(N6CCOCC6)cn5)cc4)cc23)ccc2c1cnn2CC(C)(C)O [Ex 773, 4-((5-(1-(2-hydroxy-2-methylpropyl)-4-methyl-1H-indazol-5-yl)-2,6-naphthyridin-3-yl)amino)-N-(5-morpholinopyridin-2-yl)benzenesulfonamide]

IC50 [1, 16]: < 25 nM | IC50 [2, 17]: > 250 nM | IC50 [3, 24]: 25 to 250 nM | IC50 [4, 25]: 25 to 250 nM
SMILES: COc1ccc(NS(=O)(=O)c2ccc(Nc3cc4c(-c5ccc6c(cnn6CC(C)(C)O)c5C)nccc4cn3)cc2)nn1 [Ex 798, 4-((5-(1-(2-hydroxy-2-methylpropyl)-4-methyl-1H-indazol-5-yl)-2,6-naphthyridin-3-yl)amino)-N-(6-methoxypyridazin-3-yl)benzenesulfonamide]

IC50 [1, 5]: 25 to 250 nM | IC50 [2, 6]: > 250 nM | IC50 [3, 7]: > 250 nM | IC50 [4, 8]: > 250 nM
SMILES: CS(=O)(=O)c1ccc(Nc2cc3c(C#Cc4ccc(NC(=O)C5CC5)cc4)nccc3cn2)cc1 [Example 487, N-(4-((7-((4-(methylsulfonyl)phenyl)amino)-2,6-naphthyridin-1-yl)ethynyl)phenyl)cyclopropanecarboxamide]

IC50 [1, 16]: < 25 nM | IC50 ([2]; 25-250 nM, read-out: CDK1/CCNB IC50, 25-250 nM): 25 to 250 nM | IC50 [3, 24]: 25 to 250 nM | IC50 [4, 25]: 25 to 250 nM
SMILES: Cc1c(-c2nccc3cnc(Nc4ccc(NS(=O)(=O)c5cccnn5)cc4)cc23)ccc2c1cnn2CC(C)(C)O [Ex 754, N-(4-((5-(1-(2-hydroxy-2-methylpropyl)-4-methyl-1H-indazol-5-yl)-2,6-naphthyridin-3-yl)amino)phenyl)pyridazine-3-sulfonamide]

IC50 [1, 9]: < 25 nM | IC50 [2, 10]: 25 to 250 nM | IC50 [3, 11]: 25 to 250 nM | IC50 [4, 8]: > 250 nM
SMILES: CC(C)S(=N)(=O)c1ccc(Nc2cc3c(C#Cc4cc5c(cc4N)C(C)(C)C(=O)N5)nccc3cn2)cc1 (single isomer, unassigned) [Ex 349, 5-amino-3,3-dimethyl-6-((7-((4-(propan-2-ylsulfonimidoyl)phenyl)amino)-2,6-naphthyridin-1-yl)ethynyl)indolin-2-one]

IC50 [1, 20]: 25 to 250 nM | IC50 [2, 21]: > 250 nM | IC50 [3, 14]: 25 to 250 nM | IC50 [4, 15]: 25 to 250 nM
SMILES: CS(=O)(=O)N1CCC(Nc2cc3c(N4CCC(O)CC4)nccc3cn2)CC1 [Example 1, 1-(7-((1-(methylsulfonyl)piperidin-4-yl)amino)-2,6-naphthyridin-1-yl)piperidin-4-ol]

— patent publication US20260325533A1, “CDK INHIBITOR COMPOUNDS” (ALEKSIA THERAPEUTICS, INC., priority 2023, published 2026)
